The text below walks through data of the supplement of paper PMC11616607.

Molecules are shown by their SMILES.

In the first experiment the test system is Ovsaho. Description: drug sensitivity score (DSS) from 5-point dose-response viability curve (DSS (area-under-curve based score)); higher = more sensitive (stronger growth inhibition or killing); extreme values may be limits of the assay. Particulars: exposure time: 72 h; concentration range: 5 concentrations over 10,000-fold range. A digest of the protocol: (§1)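 Drug sensitivity scores were calculated in Breeze software for each cell line and drug pair; higher scores indicate more sensitivity. A score of zero indicates no response. The underlying assay used 384-well plates: drugs were placed by an Echo 550 acoustic dispenser at five concentrations spanning a 10,000-fold range, 1,500 ovarian cancer or normal ovarian cells were added per well, and cells were kept 3 days at 37°C, 5% CO2. Viability was then measured with CellTiter-Glo luminescence on a PHERAstar FS.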
Turning to `O=C(O)c1ccc2c(c1)nc(Nc1cccc(Cl)c1)c1ccncc12` [Silmitasertib], the drug sensitivity score was 4.7.

Compound `CCOc1ccccc1-n1c(C(C)N2CCN(C(=O)COc3ccc(Cl)cc3)CC2)nc2ccccc2c1=O` (stereo unspecified) [Erastin] displayed a drug sensitivity score of 0. For `CCNCCS(=O)(=O)NC[C@@]1(c2ccccc2)SC(NC(=O)C(C)(C)C)=NN1C(=O)C(C)(C)C` [Litronesib], the drug sensitivity score came to 7.8. Turning to `CNC(=O)c1cccc(-c2ccc3c(N4CCOC[C@@H]4C)nc(N4CCOC[C@@H]4C)nc3n2)c1` [Vistusertib], the drug sensitivity score worked out at 15.4. For the compound `CC(C)(C)c1cc(NC(=O)Nc2ccc(-c3cn4c(n3)sc3cc(OCCN5CCOCC5)ccc34)cc2)no1` [Quizartinib], the drug sensitivity score was 0.2.

In turn, `N[C@@H]1CCCN(c2c(/C=C3\SC(=O)NC3=O)cccc2-c2ccccc2)C1` [AZD1208] gave a drug sensitivity score of 3.5.

`CCc1c2c(nc3ccc(O)cc13)-c1cc3c(c(=O)n1C2)COC(=O)[C@]3(O)CC` [SN-38] displayed a drug sensitivity score of 21.2. Take `Cn1cc(-c2ccc(F)c(C(F)(F)F)c2)nc1C1CCN(c2ncnc3[nH]ncc23)CC1`: the drug sensitivity score amounted to 0. `C=CC(=O)Nc1cc(Nc2nccc(-c3cn(C)c4ccccc34)n2)c(OC)cc1N(C)CCN(C)C` [Osimertinib] yielded a drug sensitivity score of 5.5.

Consider `COC(=O)c1ccc2c(c1)[nH]c1ncnc(NCCCN3CCCCC3)c12` [UM729], for which the drug sensitivity score turned out to be 0.1. In turn, `Cc1nc(NC(=O)N2CCC[C@H]2C(N)=O)sc1-c1ccnc(C(C)(C)C(F)(F)F)c1` [Alpelisib] showed a drug sensitivity score of 0.4. For `C[C@H]1CNCCCN1S(=O)(=O)c1cccc2cncc(F)c12` [Ripasudil], the drug sensitivity score was 0. For `CC(C)(C)C[C@@H]1N[C@@H](C(=O)N[C@H]2CC[C@H](O)CC2)[C@H](c2cccc(Cl)c2F)[C@]12C(=O)Nc1cc(Cl)ccc12`, the drug sensitivity score was determined as 1.4. `CON(C)C(=O)N1N=C(c2cc(F)ccc2F)S[C@@]1(CCCN)c1ccccc1` [Filanesib]: the drug sensitivity score came to 8.8. In the case of `CN(C)CC#Cc1ccc(OCCCc2sc(N3CCc4cccc(C(=O)Nc5nc6ccccc6s5)c4C3)nc2C(=O)O)c(F)c1`, the drug sensitivity score turned out to be 10.4. On the same count and under the same terms, next, `COc1cc(N2CCC(N3CCN(C)CC3)CC2)ccc1Nc1ncnc(Nc2ccccc2S(=O)(=O)C(C)C)n1` [ASP3026]: 4.7. With `CNC(=O)c1ccccc1Nc1cc(Nc2ccc(N3CCOCC3)cc2OC)ncc1C(F)(F)F` [VS-4718], the drug sensitivity score turned out to be 11.4.

Consider `CC(=O)c1c(C)c2cnc(Nc3ccc(N4CCNCC4)cn3)nc2n(C2CCCC2)c1=O` [Palbociclib], for which the drug sensitivity score came out at 3.

Turning to `CS(=O)(=O)N1CCN(Cc2cc3nc(-c4cccc5[nH]ncc45)nc(N4CCOCC4)c3s2)CC1` [Pictilisib], the drug sensitivity score turned out to be 9.5. `CCS(=O)(=O)N1CC(CC#N)(n2cc(-c3ncnc4[nH]ccc34)cn2)C1` [Baricitinib] returned a drug sensitivity score of 0. Take `O=C(Nc1cnn2ccc(N3CCC[C@@H]3c3cc(F)ccc3F)nc12)N1CC[C@H](O)C1` [Larotrectinib]: the drug sensitivity score stood at 0. Consider `CCN1CCN(Cc2ccc(Nc3ncc(F)c(-c4cc(F)c5nc(C)n(C(C)C)c5c4)n3)nc2)CC1` [Abemaciclib], for which the drug sensitivity score was 3.2. In the case of `O=C(Nc1ccncc1)C(=O)c1cn(Cc2ccc(Cl)cc2)c2ccccc12` [Indibulin], the drug sensitivity score was determined as 7.9. The compound `CN(C)C[C@@H]1CCn2cc(c3ccccc32)C2=C(C(=O)NC2=O)c2cn(c3ccccc23)CCO1` [Ruboxistaurin] yielded a drug sensitivity score of 9.2. As to `C[C@H](Nc1ncnc2[nH]cnc12)c1cc2ccc(F)cc2nc1-c1ccccn1` [AMG319], the drug sensitivity score was 1.2. For `CC(C)(C)c1cc(NC(=O)Nc2ccc(Oc3ccnc4[nH]c(=O)cnc34)cc2F)n(-c2ccccc2)n1`, the drug sensitivity score came out at 1.6. Turning to `CCn1cc(-c2ccnc3[nH]c(-c4cccc(CN(C)C)c4)cc23)c(-c2ccc(NC(=O)N(C)C)cc2)n1`, the drug sensitivity score was 1.2. `CCCCCCCCc1ccc(CCC(N)(CO)CO)cc1` [Fingolimod] had a drug sensitivity score of 7.6. `C1=N/C2=N/c3ccc(OCCN4CCCC4)c(c3)COC/C=C/COCc3cccc(c3)C(=C1)N2` [Pacritinib]: the drug sensitivity score was 8. `Nc1ccccc1NC(=O)c1ccc(CNc2nccc(-c3cccnc3)n2)cc1` [Mocetinostat] returned a drug sensitivity score of 7.8.

`N#CC1(c2ccc(NC(=O)c3cccnc3NCc3ccncc3)cc2)CCCC1` [Apatinib] displayed a drug sensitivity score of 0.3.

In the next experiment the test system is HOSE1C. The experiment is described as above. Particulars: exposure time: 72 h; concentration range: 5 concentrations over 10,000-fold range. The essentials: as §1
`O=C(O)c1ccc2c(c1)nc(Nc1cccc(Cl)c1)c1ccncc12` [Silmitasertib]: the drug sensitivity score came out at 7.7.

`CCOc1ccccc1-n1c(C(C)N2CCN(C(=O)COc3ccc(Cl)cc3)CC2)nc2ccccc2c1=O` (stereo unspecified) [Erastin] yielded a drug sensitivity score of 0. `CCNCCS(=O)(=O)NC[C@@]1(c2ccccc2)SC(NC(=O)C(C)(C)C)=NN1C(=O)C(C)(C)C` [Litronesib] yielded a drug sensitivity score of 25. Consider `CNC(=O)c1cccc(-c2ccc3c(N4CCOC[C@@H]4C)nc(N4CCOC[C@@H]4C)nc3n2)c1` [Vistusertib], for which the drug sensitivity score is 14.5. `CC(C)(C)c1cc(NC(=O)Nc2ccc(-c3cn4c(n3)sc3cc(OCCN5CCOCC5)ccc34)cc2)no1` [Quizartinib] registered a drug sensitivity score of 0. Compound `N[C@@H]1CCCN(c2c(/C=C3\SC(=O)NC3=O)cccc2-c2ccccc2)C1` [AZD1208] yielded a drug sensitivity score of 0.2. Take `CCc1c2c(nc3ccc(O)cc13)-c1cc3c(c(=O)n1C2)COC(=O)[C@]3(O)CC` [SN-38]: the drug sensitivity score turned out to be 37.3. Still for that read-out and setting: for `Cn1cc(-c2ccc(F)c(C(F)(F)F)c2)nc1C1CCN(c2ncnc3[nH]ncc23)CC1` the value was 1.9. `C=CC(=O)Nc1cc(Nc2nccc(-c3cn(C)c4ccccc34)n2)c(OC)cc1N(C)CCN(C)C` [Osimertinib] yielded a drug sensitivity score of 4.7. The compound `COC(=O)c1ccc2c(c1)[nH]c1ncnc(NCCCN3CCCCC3)c12` [UM729] showed a drug sensitivity score of 0.2. Same read-out and setting: next, `Cc1nc(NC(=O)N2CCC[C@H]2C(N)=O)sc1-c1ccnc(C(C)(C)C(F)(F)F)c1` [Alpelisib]: 2.2. `C[C@H]1CNCCCN1S(=O)(=O)c1cccc2cncc(F)c12` [Ripasudil] returned a drug sensitivity score of 2. The same measure, in the same setting: next, `CC(C)(C)C[C@@H]1N[C@@H](C(=O)N[C@H]2CC[C@H](O)CC2)[C@H](c2cccc(Cl)c2F)[C@]12C(=O)Nc1cc(Cl)ccc12`: 14.7. Compound `CON(C)C(=O)N1N=C(c2cc(F)ccc2F)S[C@@]1(CCCN)c1ccccc1` [Filanesib] yielded a drug sensitivity score of 21.8. `CN(C)CC#Cc1ccc(OCCCc2sc(N3CCc4cccc(C(=O)Nc5nc6ccccc6s5)c4C3)nc2C(=O)O)c(F)c1` gave a drug sensitivity score of 22.7.
